Source: patent EP0908457B1, “3-(1,2-benzisothiazol- and isoxazol-5-Y1)-2,4(1H,3H)-pyrimidinedione or thione and 3-(1,2-benzisothiazol- and isoxazol-5-y1)-4(3H)-pyrimidinone or thione herbicidal agents” (BASF AKTIENGESELLSCHAFT, priority 1997, dated 1999)

Experiments:
Format in all cases: in vivo
[1] = system: Cyperus serotinus, Rottb.; assay: Preemergence weed control under flooded paddy conditions, CYPSE (Flatsedge); settings: preemergence, rated three to four weeks after treatment
[2] = system: Monochoria vaginalis, Presl.; assay: Preemergence weed control under flooded paddy conditions, MOOVA (Monochoria); settings: preemergence, flooded paddy, rated three to four weeks after treatment
Cyperus iria = assay: Preemergence weed control under flooded paddy conditions, CYPIR (Rice Flatsedge); settings: preemergence, flooded paddy, rated three to four weeks after treatment
[3] = system: Echinochloa oryzoides (Ard.) Fritsch.; assay: Preemergence weed control under flooded paddy conditions, ECHORC (Watergrass (Calif.)); settings: preemergence, flooded paddy, rated three to four weeks after treatment
Sagittaria pygmaea, L. = assay: Preemergence weed control under flooded paddy conditions, SAGPY (Arrowhead (Pygmaea)); settings: preemergence, flooded paddy, rated three to four weeks after treatment

| SMILES | CYPSE herbicidal rating ([1]; 0.0320 kg/ha) | CYPSE herbicidal rating ([1]; 0.0620 kg/ha) | CYPSE herbicidal rating ([1]; 0.1250 kg/ha) | CYPSE herbicidal rating ([1]; 0.2500 kg/ha) | MOOVA herbicidal rating ([2]; 0.0320 kg/ha) | MOOVA herbicidal rating ([2]; 0.0620 kg/ha) | MOOVA herbicidal rating ([2]; 0.1250 kg/ha) | MOOVA herbicidal rating ([2]; 0.2500 kg/ha) | CYPIR herbicidal rating (Cyperus iria; 0.0320 kg/ha) | CYPIR herbicidal rating (Cyperus iria; 0.0620 kg/ha) | CYPIR herbicidal rating (Cyperus iria; 0.1250 kg/ha) | CYPIR herbicidal rating (Cyperus iria; 0.2500 kg/ha) | ECHORC herbicidal rating ([3]; 0.0320 kg/ha) | ECHORC herbicidal rating ([3]; 0.0620 kg/ha) | ECHORC herbicidal rating ([3]; 0.1250 kg/ha) | ECHORC herbicidal rating ([3]; 0.2500 kg/ha) | SAGPY herbicidal rating (Sagittaria pygmaea, L.; 0.0320 kg/ha) | SAGPY herbicidal rating (Sagittaria pygmaea, L.; 0.0620 kg/ha) | SAGPY herbicidal rating (Sagittaria pygmaea, L.; 0.1250 kg/ha) | SAGPY herbicidal rating (Sagittaria pygmaea, L.; 0.2500 kg/ha) |
| --- | --- | --- | --- | --- | --- | --- | --- | --- | --- | --- | --- | --- | --- | --- | --- | --- | --- | --- | --- | --- |
| COC(=O)C(C)Oc1cc(C)c(I)cc1-c1nsc2ccc(-n3c(=O)cc(C(F)(F)F)n(C)c3=O)cc12 (centres unmarked) [Example 470, Propionic acid, 2-{{6-{5-[3,6-dihydro-3-methyl-2,6-dioxo-4-(trifluoromethyl)-1(2H)-pyrimidinyl]-1,2-benzisothiazol-3-yl}-4-iodo-m-tolyl}oxy}-, methyl ester] | 0.0 | 0.0 | 0.0 | 4.5 | 1.5 | 2.0 | 2.0 | 3.0 | 0.0 | 0.0 | 6.0 | 7.0 | 8.5 | 9.0 | 9.0 | 9.0 | 0.0 | 0.0 | 0.0 | 1.5 |
| CCC(C(=O)OCc1nsc2ccc(-n3c(=O)cc(C(F)(F)F)n(C)c3=O)cc12)c1ccccc1 (centres unmarked) [Example 473, 2,4(1H,3H)-Pyrimidinedione, 3-[3-(hydroxymethyl)-1,2-benzisothiazol-5-yl]-1-methyl-6-(trifluoromethyl)-, 2-phenylbutyrate (ester)] | 0.0 | 0.0 |  | 5.0 | 4.0 | 6.0 | 7.0 | 7.0 | 2.0 | 4.0 | 6.0 | 8.0 | 1.0 | 2.0 | 2.0 | 4.0 | 0.0 | 0.0 | 2.0 | 3.0 |
| Cn1c(C(F)(F)F)cc(=O)n(-c2ccc3snc(COC(=O)c4cc(Cl)nc(Cl)c4)c3c2)c1=O [Example 474, 2,4(1H,3H)-Pyrimidinedione, 3-[3-(hydroxymethyl)-1,2-benzisothiazol-5-yl]-1-methyl-6-(trifluoromethyl)-, 2,6-dichloroisonicotinate (ester)] | 0.0 | 0.0 | 0.0 | 0.0 | 2.0 | 3.0 | 7.0 | 9.0 | 2.0 | 5.0 | 4.0 | 6.0 | 0.0 | 0.0 | 0.0 | 0.0 | 0.0 | 0.0 | 0.0 | 0.0 |
| Cn1c(C(F)(F)F)cc(=O)n(-c2ccc3snc(COC(=O)c4ccno4)c3c2)c1=O [Example 475, 2,4(1H,3H)-Pyrimidinedione, 3-[3-(hydroxymethyl)-1,2-benzisothiazol-5-yl]-1-methyl-6-(trifluoromethyl)-, 5-isoxazolecarboxylate (ester)] | 0.0 |  | 5.0 | 7.0 | 9.0 | 9.0 | 9.0 | 9.0 | 4.0 | 6.0 | 9.0 | 9.0 | 0.0 | 0.0 | 2.0 | 3.0 | 0.0 | 4.0 | 6.0 | 7.0 |
| Cn1c(C(F)(F)F)cc(=O)n(-c2ccc3snc(COC(=O)c4ccc([N+](=O)[O-])o4)c3c2)c1=O [Example 476, 2,4(1H,3H)-Pyrimidinedione, 3-[3-(hydroxymethyl)-1,2-benzisothiazol-5-yl]-1-methyl-6-(trifluoromethyl)-, 5-nitro-2-furoate (ester)] | 0.0 |  | 3.0 | 6.0 | 5.0 | 6.0 | 6.0 | 9.0 | 4.0 | 4.0 | 9.0 | 9.0 | 0.0 | 2.0 | 2.0 | 3.0 | 0.0 | 2.0 | 4.0 | 5.0 |
| Cn1c(C(F)(F)F)cc(=O)n(-c2ccc3snc(COC(=O)c4cccs4)c3c2)c1=O [Example 477, 2,4(1H,3H)-Pyrimidinedione, 3-[3-(hydroxymethyl)-1,2-benzisothiazol-5-yl]-1-methyl-6-(trifluoromethyl)-, 2-thiophenecarboxylate (ester)] | 3.0 | 3.0 |  | 3.0 | 3.0 | 3.0 | 6.0 | 7.0 | 4.0 | 4.0 | 5.0 | 6.0 | 0.0 | 0.0 | 2.0 | 3.0 | 0.0 | 0.0 | 0.0 | 2.0 |
| Cn1c(C(F)(F)F)cc(=O)n(-c2ccc3snc(COC(=O)c4cccnc4Cl)c3c2)c1=O [Example 480, 2,4(1H,3H)-Pyrimidinedione, 3-[3-(hydroxymethyl)-1,2-benzisothiazol-5-yl]-1-methyl-6-(trifluoromethyl)-, 2-chloronicotinate (ester)] | 3.0 |  | 3.0 |  | 7.0 | 9.0 | 9.0 | 9.0 | 6.0 | 9.0 | 9.0 | 9.0 | 0.0 | 2.0 | 5.0 | 6.0 | 0.0 | 3.0 | 5.0 | 6.0 |
